Laboratory results reported in publication PMC12133982, “Predominant T-cell epitopes of SARS-CoV-2 restricted by multiple prevalent HLA-B and HLA-C allotypes in Northeast Asia” (Frontiers in Immunology, 2025).
Peptide text beside a SMILES is read from it.

Columns and labels:
HLA-B1301 = HLA-B1301 (Homo sapiens, UniProt P01889, A65T/A93T/A95T/D138N/D201E/D98Y/E176V/E204Q/E69M/E70A/G107R/K202T/L105A/L119I/N104T/N87E/Q94N/R106L/R155S/R169L/R180L/S101N/S121R/S35A/S48T/T118I/V127L/V36M/Y140L/Y91S); assay: Competitive peptide binding assay, CIR-B1301; details: HMy2.CIR-B1301 cells, reference Cy5-[…], class from inhibition at 5 and 15 μM, flow cytometry MFI; read-out: Binding affinity with HLA-B1301
Protocol: (§1) Then, competitive peptide binding assays were performed.

HLA-B3501 = HLA-B3501 (Homo sapiens, UniProt P01889, A329T/A93T/A95T/C349S/D201E/D98Y/E176V/E187L/E204Q/E69T/I218V/K202T/L119I/Q94N/R155S/R180L/S121R/S35A/S48A/T118I/V127L/V306I/V36M/Y140S/Y91F); assay: Competitive peptide binding assay, CIR-B3501; details: HMy2.CIR-B3501 cells, reference Cy5-[…], class from inhibition at 5 and 15 μM, flow cytometry MFI; read-out: Binding affinity with HLA-B3501
Protocol: as §1

HLA-B4001 = HLA-B4001 (Homo sapiens, UniProt P01889, A65T/A93T/A95T/D138N/D98Y/E176V/E69K/N87E/Q56L/Q94N/R180L/S121R/S35A/S48T/T167S/V36M/W171L/Y33H/Y91S); assay: Competitive peptide binding assay, CIR-B4001; details: HMy2.CIR-B4001 cells, reference Cy5-[…], class from inhibition at 5 and 15 μM, flow cytometry MFI; read-out: Binding affinity with HLA-B4001
Protocol: as §1

HLA-B5801 = HLA-B5801 (Homo sapiens, UniProt P01889, A329T/C349S/D201E/D98Y/E176V/E187L/E204Q/E69T/G107R/I218V/I90N/K202T/L105A/L119I/N104I/N87E/Q89R/Q94S/R106L/R155S/R180L/R86G/S101N/S121R/S35A/S48A/T118I/V127L/V306I/V36M/Y140S/Y91M); assay: Competitive peptide binding assay, CIR-B5801; details: HMy2.CIR-B5801 cells, reference Cy5-[…], class from inhibition at 5 and 15 μM, flow cytometry MFI; read-out: Binding affinity with HLA-B5801
Protocol: as §1

HLA-B4601 = HLA-B4601 (Homo sapiens, UniProt P01889, A329T/A93R/C349S/D201E/E100V/E187L/E204Q/E69M/E70A/I90K/K202T/N87E/R155S/R180W/S121R/S35A/S48A/V306I/V36M/Y140S); assay: Competitive peptide binding assay, CIR-B4601; details: for IC50: HMy2.CIR-B4601 cells, reference Cy5-[…], class from inhibition at 5 and 15 μM, flow cytometry MFI, read-out: Binding affinity with HLA-B4601; for inhibition at 5 µM: read-out: Inhibition % of Cy5-reference peptide binding, CIR-B4601, 5μM peptide; for inhibition at 15 µM: read-out: Inhibition % of Cy5-reference peptide binding, CIR-B4601, 15μM peptide
Protocol: as §1

HLA-B1501 = HLA-B1501 (Homo sapiens, UniProt P01889, A329T/A93T/A95T/C349S/D201E/D98Y/E187L/E204Q/E69M/E70A/K202T/N87E/Q94N/R155S/R180W/S121R/S35A/S48A/V306I/V36M/Y140S/Y91S); assay: Competitive peptide binding assay, CIR-B1501; details: HMy2.CIR-B1501 cells, reference Cy5-[…], class from inhibition at 5 and 15 μM, flow cytometry MFI; read-out: Binding affinity with HLA-B1501
Protocol: as §1

HLA-B1302 = HLA-B1302 (Homo sapiens, UniProt P01889, A65T/A93T/A95T/D138N/D201E/D98Y/E176V/E204Q/E69M/E70A/G107R/K202T/L105A/L119W/N104T/N87E/Q94N/R106L/R155S/R169L/R180L/S101N/S121T/S35A/S48T/V127L/V36M/Y140L/Y91S); assay: Competitive peptide binding assay, CIR-B1302; details: HMy2.CIR-B1302 cells, reference Cy5-MMWYWGPSL, class from inhibition at 5 and 15 μM, flow cytometry MFI; read-out: Binding affinity with HLA-B1302
Protocol: as §1

HLA-B1502 = HLA-B1502 (Homo sapiens, UniProt P01889, A329T/A93T/A95T/C349S/D201E/D98Y/E187L/E204Q/E69M/E70A/H137Y/K202T/L119I/Q94N/R155S/R180L/S121R/S35A/S48A/T118I/V306I/V36M/Y140S/Y91S); assay: Competitive peptide binding assay, CIR-B1502; details: HMy2.CIR-B1502 cells, reference Cy5-[…], class from inhibition at 5 and 15 μM, flow cytometry MFI; read-out: Binding affinity with HLA-B1502
Protocol: as §1

HLA-C0702 = HLA-C0702 (Homo sapiens, UniProt P10321); assay: Competitive peptide binding assay, CIR-C0702
HLA-C0102 = HLA-C0102 (Homo sapiens, UniProt P10321, A176E/A330V/A35S/A97T/C350S/D114A/D33F/L171W/L180R/L218V/M285V/M309V/M331V/P208H/Q277E/Q291P/R121W/R243W/R30K/S123C/S140Y/S297R/T329A/T363A/V272M/V319A); assay: Competitive peptide binding assay, CIR-C0102; details: for IC50: HMy2.CIR-C0102 cells, reference Cy5-[…], class from inhibition at 5 and 15 μM, flow cytometry MFI, read-out: Binding affinity with HLA-C0102
Protocol: as §1

HLA-C1402 = HLA-C1402 (Homo sapiens, UniProt P10321, A176E/A330V/A35S/A97T/C350S/D114A/D33S/L171W/L180R/L218V/M285V/M309V/M331V/P208H/Q277E/Q291P/R121W/R243W/S123F/S297R/S48A/T329A/T363A/V319A); assay: Competitive peptide binding assay, CIR-C1402; details: HMy2.CIR-C1402 cells, reference Cy5-[…], class from inhibition at 5 and 15 μM, flow cytometry MFI; read-out: Binding affinity with HLA-C1402
Protocol: as §1

HLA-C0602 = HLA-C0602 (Homo sapiens, UniProt P10321, A176E/A330V/C350S/L171W/L180W/L218V/M285V/M309V/M331V/N104K/P208H/Q277E/Q291P/R121W/S101N/S123Y/S297R/T329A/T363A/V319A/V328M); assay: Competitive peptide binding assay, CIR-C0602
HLA-C0401 = HLA-C0401 (Homo sapiens, UniProt P10321, A176E/A330V/A35S/A73E/C25G/C350S/D138N/D33S/E299K/L171W/L180R/L218V/M285V/M309V/M331V/N104K/P208H/Q277E/Q291P/R243W/R38W/S101N/S123F/S140F/S297R/S48A/T329A/T363A/V319A/V327M); assay: Competitive peptide binding assay, CIR-C0401; details: HMy2.CIR-C0401 cells, reference Cy5-[…], class from inhibition at 5 and 15 μM, flow cytometry MFI; read-out: Binding affinity with HLA-C0401
Protocol: as §1

HLA-C0302 = HLA-C0302 (Homo sapiens, UniProt P10321, A176E/A330V/A97T/C25G/C350S/D114A/D33Y/E197K/L127V/L171W/L218V/M285V/M309V/M331V/P208H/Q277E/Q291P/R243W/R45H/S123Y/S297R/S48A/T118I/T187L/T329A/T363A/V319A); assay: Competitive peptide binding assay, CIR-C0302; details: HMy2.CIR-C0302 cells, reference Cy5-[…], class from inhibition at 5 and 15 μM, flow cytometry MFI; read-out: Binding affinity with HLA-C0302
Protocol: as §1

[1] = read-out: Inhibition % of Cy5-reference peptide binding

Structure (SMILES) | IC50 (HLA-B1301) [µM] | IC50 (HLA-B3501) [µM] | IC50 (HLA-B4001) [µM] | IC50 (HLA-B5801) [µM] | IC50 (HLA-B4601) [µM] | IC50 (HLA-B1501) [µM] | IC50 (HLA-C0702) [µM] | IC50 (HLA-C0102) [µM] | IC50 (HLA-C1402) [µM] | IC50 (HLA-C0602) [µM] | other results
CC[C@H](C)[C@H](NC(=O)[C@@H](NC(=O)[C@H](CC(C)C)NC(=O)[C@H](CC(N)=O)NC(=O)[C@H](Cc1c[nH]c2ccccc12)NC(=O)[C@H](CCC(N)=O)NC(=O)[C@H](CCC(=O)O)NC(=O)[C@@H](N)CC(C)C)C(C)C)C(=O)NCC(=O)O [Epitope Y215] (H-LEQWNLVIG-OH; N-terminus and C-terminus assumed) | 5 to 15 | > 15 | 5 to 15 | > 15 | 5 to 15 | – | – | – | – | – | inhibition at 5 µM (HLA-B4601): 47.2%; inhibition at 15 µM (HLA-B4601): 87.3%
CC[C@H](C)[C@H](NC(=O)[C@H](CC(N)=O)NC(=O)[C@@H](NC(=O)[C@H](CCC(=O)O)NC(=O)[C@@H]1CCCN1C(=O)[C@H](CC(N)=O)NC(=O)[C@H](Cc1ccccc1)NC(=O)[C@H](CO)NC(=O)[C@@H](N)Cc1c[nH]c2ccccc12)[C@@H](C)O)C(=O)O [Epitope Y297] (H-WSFNPETNI-OH; N-terminus and C-terminus assumed) | > 15 | – | > 15 | – | – | < 5 | – | – | – | – | –
CC[C@H](C)[C@H](NC(=O)[C@@H](NC(=O)CNC(=O)[C@H](CC(N)=O)NC(=O)[C@H](CO)NC(=O)[C@H](CC(=O)O)NC(=O)[C@H](C)N)[C@@H](C)O)C(=O)N[C@H](C(=O)N[C@H](C(=O)O)C(C)C)[C@@H](C)O [Epitope Y216] (H-ADSNGTITV-OH; N-terminus and C-terminus assumed) | > 15 | > 15 | 5 to 15 | 5 to 15 | > 15 | – | – | – | – | – | IC50 (HLA-B1302): > 15 µM
CC(C)C[C@H](NC(=O)[C@H](CC(C)C)NC(=O)[C@H](CC(C)C)NC(=O)[C@H](CC(N)=O)NC(=O)[C@H](CO)NC(=O)[C@H](CS)NC(=O)[C@H](CCC(=O)O)NC(=O)[C@@H](N)[C@@H](C)O)C(=O)N[C@@H](CCC(N)=O)C(=O)N[C@@H](Cc1ccc(O)cc1)C(=O)O [Epitope Y231] (H-TECSNLLLQY-OH; N-terminus and C-terminus assumed) | 5 to 15 | – | > 15 | – | < 5 | > 15 | – | – | – | – | IC50 (HLA-B1502): > 15 µM; IC50 (HLA-B1302): > 15 µM; inhibition at 5 µM (HLA-B4601): 73.8%; inhibition at 15 µM (HLA-B4601): 89.3%
CC[C@H](C)[C@H](NC(=O)[C@@H]1CCCN1C(=O)[C@H](CCSC)NC(=O)[C@H](CC(C)C)NC(=O)[C@H](CC(C)C)NC(=O)[C@H](CO)NC(=O)[C@H](Cc1ccc(O)cc1)NC(=O)[C@@H](N)Cc1ccc(O)cc1)C(=O)N[C@@H](CC(C)C)C(=O)O [Epitope M95] | – | – | – | – | – | – | > 15 | 5 to 15 | 5 to 15 | > 15 | –
CC[C@H](C)[C@H](NC(=O)[C@H](CC(N)=O)NC(=O)[C@H](CC(=O)O)NC(=O)[C@H](CO)NC(=O)[C@H](CO)NC(=O)[C@@H](N)CO)C(=O)N[C@@H](C)C(=O)N[C@@H](CC(C)C)C(=O)N[C@@H](CC(C)C)C(=O)O [Epitope M111] (H-SSSDNIALL-OH; N-terminus and C-terminus assumed) | – | – | – | – | – | – | > 15 | > 15 | > 15 | 5 to 15 | IC50 (HLA-C0401): < 5 µM; inhibition at 5 µM (HLA-C0102; [1]): 30.9%; inhibition at 15 µM (HLA-C0102; [1]): 47.1%
CC[C@H](C)[C@H](NC(=O)[C@H](C)NC(=O)[C@H](C)NC(=O)[C@H](CC(N)=O)NC(=O)[C@H](CC(N)=O)NC(=O)[C@H](C)NC(=O)[C@@H]1CCCN1C(=O)[C@H](CC(N)=O)NC(=O)[C@H](CCCNC(=N)N)NC(=O)[C@@H](N)[C@@H](C)O)C(=O)O [Epitope M117] (H-TRNPANNAAI-OH; N-terminus and C-terminus assumed) | – | – | – | – | – | – | < 5 | > 15 | > 15 | < 5 | inhibition at 5 µM (HLA-C0102; [1]): 21%
C[C@H](NC(=O)CNC(=O)[C@H](C)NC(=O)[C@@H](NC(=O)[C@@H](N)Cc1c[nH]c2ccccc12)[C@@H](C)O)C(=O)N[C@@H](C)C(=O)N[C@@H](C)C(=O)N[C@@H](Cc1ccc(O)cc1)C(=O)N[C@@H](Cc1ccc(O)cc1)C(=O)O [Epitope Y174] (H-WTAGAAAYY-OH; N-terminus and C-terminus assumed) | – | > 15 | > 15 | > 15 | > 15 | 5 to 15 | – | – | – | – | IC50 (HLA-B1502): < 5 µM
CC[C@H](C)[C@H](NC(=O)[C@@H](NC(=O)[C@@H](N)CO)[C@@H](C)CC)C(=O)N[C@@H](C)C(=O)N[C@@H](Cc1ccc(O)cc1)C(=O)N[C@H](C(=O)N[C@@H](CCSC)C(=O)N[C@@H](CO)C(=O)N[C@@H](CC(C)C)C(=O)O)[C@@H](C)O [Epitope M86] (H-SIIAYTMSL-OH; N-terminus and C-terminus assumed) | – | – | – | – | – | – | – | 5 to 15 | > 15 | – | IC50 (HLA-C0401): 5 to 15 µM; IC50 (HLA-C0302): > 15 µM
